Key:
Experiment in all cases: relative viability (nuclei count vs DMSO), 5 days (fraction); higher = more cells survive
XMD14-99 + AZD7762 = compound: CN1CCN(CC1)C2=CC(=C(C=C2)NC3=NC(=C(S3)C(=O)C4=C(C=CC=C4Cl)Cl)N)OC [XMD14-99] + NC(=O)Nc1cc(-c2cccc(F)c2)sc1C(=O)N[C@H]1CCCNC1 [AZD7762] (partner 0.2 µM)
How it was run: (§1)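 One day after seeding in 1536-well plates, lung cancer cell lines were dosed by pin tool. Dosing was either single-drug or a fixed anchor-drug dose plus five library-drug doses (not always all listed) in √10 steps. After 5 days, nuclei were stained in one fix-and-stain step and counted on 4× images, and relative viability is the nuclei count of treated wells over that of vehicle wells, given as the median of duplicate plates.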

XMD14-99 + OSI-027 = compound: CN1CCN(CC1)C2=CC(=C(C=C2)NC3=NC(=C(S3)C(=O)C4=C(C=CC=C4Cl)Cl)N)OC [XMD14-99] + COc1cccc2cc(-c3nc([C@H]4CC[C@H](C(=O)O)CC4)n4ncnc(N)c34)[nH]c12 [OSI-027] (partner 0.5 µM)
How it was run: as §1

XMD14-99 + Tozasertib = compound: CN1CCN(CC1)C2=CC(=C(C=C2)NC3=NC(=C(S3)C(=O)C4=C(C=CC=C4Cl)Cl)N)OC [XMD14-99] + Cc1cc(Nc2cc(N3CCN(C)CC3)nc(Sc3ccc(NC(=O)C4CC4)cc3)n2)n[nH]1 [Tozasertib] (partner 0.1 µM)
How it was run: as §1

AZD1208 + Alpelisib = compound: N[C@@H]1CCCN(c2c(/C=C3\SC(=O)NC3=O)cccc2-c2ccccc2)C1 [AZD1208] + Cc1nc(NC(=O)N2CCC[C@H]2C(N)=O)sc1-c1ccnc(C(C)(C)C(F)(F)F)c1 [Alpelisib] (partner 2 µM)
How it was run: as §1

Cell Line | relative viability (XMD14-99 + AZD7762; first compound 0.08 µM) | relative viability (XMD14-99 + AZD7762; first compound 0.8 µM) | relative viability (XMD14-99 + AZD7762; first compound 2.53 µM) | relative viability (XMD14-99 + AZD7762; first compound 8 µM) | relative viability (XMD14-99 + OSI-027; first compound 0.08 µM) | relative viability (XMD14-99 + OSI-027; first compound 0.8 µM) | relative viability (XMD14-99 + OSI-027; first compound 2.53 µM) | relative viability (XMD14-99 + OSI-027; first compound 8 µM) | relative viability (XMD14-99 + Tozasertib; first compound 0.08 µM) | relative viability (XMD14-99 + Tozasertib; first compound 0.8 µM) | relative viability (XMD14-99 + Tozasertib; first compound 2.53 µM) | relative viability (XMD14-99 + Tozasertib; first compound 8 µM) | relative viability (AZD1208 + Alpelisib; first compound 0.08 µM) | relative viability (AZD1208 + Alpelisib; first compound 0.253 µM) | relative viability (AZD1208 + Alpelisib; first compound 0.8 µM) | relative viability (AZD1208 + Alpelisib; first compound 2.53 µM) | relative viability (AZD1208 + Alpelisib; first compound 8 µM)
NCI-H2342 | 0.55 | 0.502 | 0.583 | 0.458 | 0.594 | 0.674 | 0.752 | 0.548 | 0.483 | 0.628 | 0.591 | 0.516 | – | – | – | – | –
SK-MES-1 | – | – | – | – | 0.589 | 0.506 | 0.54 | 0.291 | 0.925 | 0.861 | 0.761 | 0.5 | 0.697 | 0.856 | 0.628 | 0.704 | 0.683
NCI-H1993 | 0.879 | 0.702 | 0.82 | 0.593 | 0.575 | 0.555 | 0.53 | 0.53 | 0.602 | 0.68 | 0.549 | 0.571 | – | 0.608 | 0.683 | 0.737 | 0.63
HCC-366 | 0.237 | 0.215 | 0.251 | 0.187 | 0.855 | 1.05 | 0.82 | 0.608 | 0.117 | 0.109 | 0.657 | 0.0463 | 0.453 | 0.362 | 0.337 | 0.27 | 0.227
201T | 0.529 | 0.598 | 0.583 | 0.607 | 0.748 | 0.729 | 0.828 | 0.494 | 0.899 | 0.915 | 0.886 | 0.669 | 1.04 | 0.948 | 0.919 | 1.04 | 0.976
HCC-827 | 0.227 | 0.202 | 0.203 | 0.191 | 0.726 | 0.68 | 0.655 | 0.608 | 0.393 | 0.394 | 0.342 | 0.404 | 0.969 | 1.04 | 0.915 | 0.859 | 0.893
NCI-H650 | 1.05 | 1.06 | 1.16 | 0.851 | 0.544 | 0.58 | 0.464 | 0.42 | 0.747 | 0.688 | 0.667 | 0.581 | 1.11 | 1.15 | 1.07 | 0.967 | 0.823
NCI-H2085 | 0.95 | 0.914 | 0.881 | 0.72 | 0.725 | 0.815 | 0.624 | 0.42 | 0.752 | 0.779 | 0.716 | 0.464 | 0.921 | 0.979 | 0.885 | 1.02 | 1.03
NCI-H596 | 1.16 | 1.01 | 1.29 | 1.15 | 0.675 | 0.901 | 0.609 | 0.643 | 0.881 | 0.839 | 0.892 | 0.803 | 0.387 | 0.573 | 0.351 | 0.376 | 0.353
SK-LU-1 | – | – | – | – | 0.34 | 0.391 | 0.301 | 0.213 | 0.34 | 0.298 | 0.355 | 0.254 | 0.792 | 0.913 | 0.979 | 0.9 | 0.76

— the supplement of paper PMC10307832
